Measurements as given in patent US9718785B2, “1,3-Disubstituted cyclopentane derivatives” (MERCK PATENT GMBH, priority 2013, dated 2017).

Molecular target: T1, human recombinant full-length fatty acid synthase (FASN) (Homo sapiens, UniProt P49327)
T1 construct: 40 nM human recombinant full-length fatty acid synthase (produced in-house in SF9 cells); made in house; host or cells: SF9 insect cells
Assay: Biochemical activity testing of human fatty acid synthase FASN (NADPH fluorescence intensity enzyme assay)
Details: for IC50: human recombinant FASN, enzyme assay
Source text: Biochemical Activity Testing of Human Fatty Acid Synthase FASN
Fatty acid synthase FASN is a multifunctional enzyme with seven catalytic activities thereby synthesising long chain fatty acids especially palmitoyl-CoA in the presence of co-factor NADPH starting from the substrates acetyl-CoA and malonyl-CoA. The reductive synthesis is realized by the oxidation of NADPH to NADP. Since NADPH has a high fluorescence intensity quantum yield compared to NADP with excitation at 340 nm and emission at 460 nm, the reaction can be monitored via the decrease in fluorescence intensity. The biochemical FASN activity testing was performed as 384 well two-time-point kinetic fluorescence intensity assay format in Greiner low volume medium binding 384-well black microtiter plates in a total assay volume of 8 μl and was used for high throughput screen. In each well 3 μl 40 nM human recombinant full-length fatty acid synthase (produced in-house in SF9 cells) were dispensed in the following assay buffer: 50 mM potassium phosphate buffer pH 7.0, 0.005% (w/v) BSA, 2 mM Glutathione, 0.02% Tween-20. Then 2 μl of 200 μM NADPH in assay buffer were added, followed by the addition of the test compounds in 10 dilution concentrations starting with 30 μM (final concentration) to get a final DMSO content of 1% (v/v). The mixture was incubated for at least 15 min at room temperature. After the pre-incubation the enzymatic reaction was started by the addition of 2 μl substrate solution (80 μM acetyl-CoA, 240 μM malonyl-CoA). A first fluorescence intensity measurement (time point one) was performed with an Envision multimode reader (Perkin Elmer LAS Germany GmbH) at excitation wavelength 340 nm (lamp mode) and emission wavelength 460 nm. The reaction was incubated for 30 minutes at room temperature. After this the fluorescence intensity was measured again in the Envision using the same parameters as described above (second time point measurement). The data were analysed by subtracting the first time point measurement value from the second time point measurement value (after the enzymatic reaction). The differences of the emission signals were determined. These reflect directly the conversion rate of NADPH. The full value used was the inhibitor-free reaction. A pharmacological zero value was used like GSK837149A (Sigma-Aldrich) in a final concentration of 5-10 μM. The inhibitory values (IC50) were determined using either the program Symyx Assay Explorer® or Condosseo® from GeneData.

T1 sequence (P49327 whole entry): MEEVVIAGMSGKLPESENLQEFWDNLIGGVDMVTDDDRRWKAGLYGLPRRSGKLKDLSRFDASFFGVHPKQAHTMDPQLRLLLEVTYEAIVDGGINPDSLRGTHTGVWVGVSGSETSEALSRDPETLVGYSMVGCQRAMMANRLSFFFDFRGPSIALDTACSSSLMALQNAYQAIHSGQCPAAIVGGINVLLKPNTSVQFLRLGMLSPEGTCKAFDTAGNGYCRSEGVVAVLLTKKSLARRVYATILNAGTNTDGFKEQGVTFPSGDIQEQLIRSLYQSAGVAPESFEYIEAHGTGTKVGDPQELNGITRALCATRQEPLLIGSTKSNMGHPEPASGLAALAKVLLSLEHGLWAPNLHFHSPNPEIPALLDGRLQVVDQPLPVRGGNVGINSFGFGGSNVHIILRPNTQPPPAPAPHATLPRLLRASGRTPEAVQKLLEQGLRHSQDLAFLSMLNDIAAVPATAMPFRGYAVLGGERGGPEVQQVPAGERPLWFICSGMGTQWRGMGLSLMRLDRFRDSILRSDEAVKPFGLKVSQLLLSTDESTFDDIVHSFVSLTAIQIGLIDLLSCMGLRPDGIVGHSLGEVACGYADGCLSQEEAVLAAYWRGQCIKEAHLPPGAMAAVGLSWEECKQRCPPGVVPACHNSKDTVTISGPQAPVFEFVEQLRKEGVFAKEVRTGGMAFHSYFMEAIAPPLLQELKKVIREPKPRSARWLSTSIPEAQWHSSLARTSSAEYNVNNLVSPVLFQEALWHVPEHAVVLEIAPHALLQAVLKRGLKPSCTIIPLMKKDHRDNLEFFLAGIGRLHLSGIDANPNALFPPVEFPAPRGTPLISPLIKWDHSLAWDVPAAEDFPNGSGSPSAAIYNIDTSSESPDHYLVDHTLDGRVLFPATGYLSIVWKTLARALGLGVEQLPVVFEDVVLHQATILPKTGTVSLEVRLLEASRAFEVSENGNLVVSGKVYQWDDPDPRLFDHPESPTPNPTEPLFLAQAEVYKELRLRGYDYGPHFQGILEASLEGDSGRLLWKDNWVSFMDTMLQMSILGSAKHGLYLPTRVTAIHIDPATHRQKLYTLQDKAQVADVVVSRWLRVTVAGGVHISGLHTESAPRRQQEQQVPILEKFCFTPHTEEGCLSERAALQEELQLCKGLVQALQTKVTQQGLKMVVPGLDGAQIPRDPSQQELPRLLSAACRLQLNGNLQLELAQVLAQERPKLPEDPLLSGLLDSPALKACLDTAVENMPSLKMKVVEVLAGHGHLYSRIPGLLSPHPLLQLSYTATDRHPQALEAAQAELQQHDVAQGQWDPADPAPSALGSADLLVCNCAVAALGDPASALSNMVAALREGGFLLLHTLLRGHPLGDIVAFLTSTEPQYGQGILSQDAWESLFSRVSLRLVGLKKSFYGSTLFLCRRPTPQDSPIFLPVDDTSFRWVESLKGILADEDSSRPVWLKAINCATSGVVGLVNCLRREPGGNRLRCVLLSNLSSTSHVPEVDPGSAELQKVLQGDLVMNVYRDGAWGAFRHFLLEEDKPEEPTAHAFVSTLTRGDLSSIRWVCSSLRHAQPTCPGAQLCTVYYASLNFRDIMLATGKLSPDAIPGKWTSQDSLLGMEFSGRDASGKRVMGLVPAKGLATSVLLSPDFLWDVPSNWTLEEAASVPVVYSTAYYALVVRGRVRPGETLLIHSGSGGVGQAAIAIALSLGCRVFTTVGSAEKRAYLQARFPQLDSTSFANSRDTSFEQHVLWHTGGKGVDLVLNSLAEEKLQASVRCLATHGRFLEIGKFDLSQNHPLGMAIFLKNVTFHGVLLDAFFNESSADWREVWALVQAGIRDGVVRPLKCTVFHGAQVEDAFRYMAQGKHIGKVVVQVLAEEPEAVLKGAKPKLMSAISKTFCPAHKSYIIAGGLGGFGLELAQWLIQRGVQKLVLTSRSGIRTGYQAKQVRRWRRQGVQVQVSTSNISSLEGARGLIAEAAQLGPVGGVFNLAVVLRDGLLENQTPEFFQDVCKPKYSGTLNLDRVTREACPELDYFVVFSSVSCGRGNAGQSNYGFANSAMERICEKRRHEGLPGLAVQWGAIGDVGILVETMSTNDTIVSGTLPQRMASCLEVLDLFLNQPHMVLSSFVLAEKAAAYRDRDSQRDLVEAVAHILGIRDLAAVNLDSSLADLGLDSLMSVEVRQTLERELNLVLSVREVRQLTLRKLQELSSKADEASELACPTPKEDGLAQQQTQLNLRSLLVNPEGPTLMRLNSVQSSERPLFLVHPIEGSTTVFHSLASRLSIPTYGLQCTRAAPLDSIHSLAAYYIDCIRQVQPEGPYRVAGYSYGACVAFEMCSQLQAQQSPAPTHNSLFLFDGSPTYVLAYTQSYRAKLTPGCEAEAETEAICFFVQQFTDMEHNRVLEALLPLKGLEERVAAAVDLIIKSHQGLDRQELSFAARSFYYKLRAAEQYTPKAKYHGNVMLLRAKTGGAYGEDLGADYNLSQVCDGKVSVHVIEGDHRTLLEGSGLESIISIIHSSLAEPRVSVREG

SMILES	IC50 [nM]	Inhibition of FASN (enzyme assay) (at 3 μM)
CCNC(=O)[C@H]1CC[C@@H](n2cncc2-c2ccc(-c3nc4ccccc4o3)cc2)C1 [Compound A1, (1S,3R)-3-[5-(4-benzooxazol-2-yl-phenyl)-imidazol-1-yl]-cyclopentanecarboxylic acid ethylamide]	< 300	–
CCNC(=O)[C@H]1CC[C@@H](n2cncc2-c2ccc(-c3ccccc3)cc2)C1 [Compound A2, (1S,3R)-3-(5-biphenyl-4-yl-imidazol-1-yl)-cyclopentanecarboxylic acid ethylamide]	< 300	–
CCNC(=O)[C@H]1CC[C@@H](n2cncc2-c2ccc(-c3ccc(Cl)cc3)cc2)C1 [Compound A3, (1S,3R)-3-[5-(4′-Chloro-biphenyl-4-yl)-imidazol-1-yl]-cyclopentanecarboxylic acid ethylamide]	< 300	–
CC1(NC(=O)[C@H]2CC[C@@H](n3cncc3-c3ccc(-c4nc5ccccc5o4)cc3)C2)CC1 [Compound A4, (1S,3R)-3-[5-(4-benzoxazol-2-yl-phenyl)-imidazol-1-yl]-cyclopentanecarboxylic acid (1-methyl-cyclopropyl)-amide]	< 300	–
CC1(NC(=O)[C@H]2CC[C@@H](n3cncc3-c3ccc(-c4cnc5[nH]ccc5c4)cc3)C2)CC1 [Compound A5, (1S,3R)-3-{5-[4-(1H-pyrrolo[2,3-b]pyridin-5-yl)-phenyl]-imidazol-1-yl}-cyclopentanecarboxylic acid (1-methyl-cyclopropyl)-amide]	–	Inhibition: −44%
CC1(NC(=O)[C@H]2CC[C@@H](n3cncc3-c3ccc(-c4ccc5ncsc5c4)cc3)C2)CC1 [Compound A6, (1S,3R)-3-[5-(4-benzothiazol-6-yl-phenyl)-imidazol-1-yl]-cyclopentanecarboxylic acid (1-methyl-cyclopropyl)-amide amide]	< 300	–
CC1(NC(=O)[C@H]2CC[C@@H](n3cncc3-c3ccc(-c4ccc5cc[nH]c5c4)cc3)C2)CC1 [Compound A7, (1S,3R)-3-{5-[4-(1H-indol-6-yl)-phenyl]-imidazol-1-yl}-cyclopentanecarboxylic acid (1-methyl-cyclopropyl)-amide]	< 300	–
CC1(NC(=O)[C@H]2CC[C@@H](n3cncc3-c3ccc(-c4cc5cc(F)ccc5[nH]4)cc3)C2)CC1 [Compound A8, (1S,3R)-3-{5-[4-(5-fluoro-1H-indol-2-yl)-phenyl]-imidazol-1-yl}-cyclopentanecarboxylic acid (1-methyl-cyclopropyl)-amide]	300 to 3000	–
CC1(NC(=O)[C@H]2CC[C@@H](n3cncc3-c3ccc(-c4ccc5[nH]nnc5c4)cc3)C2)CC1 [Compound A9, (1S,3R)-3-{5-[4-(1H-benzotriazol-5-yl)-phenyl]-imidazol-1-yl}-cyclopentanecarboxylic acid (1-methyl-cyclopropyl)-amide]	< 300	–
CC1(NC(=O)[C@H]2CC[C@@H](n3cncc3-c3ccc(-c4ccc5[nH]ccc5c4)cc3)C2)CC1 [Compound A10, (1S,3R)-3-{5-[4-(1H-indol-5-yl)-phenyl]-imidazol-1-yl}-cyclopentanecarboxylic acid (1-methyl-cyclopropyl)-amide]	< 300	–
CC1(NC(=O)[C@H]2CC[C@@H](n3cncc3-c3ccc(-c4cccc5[nH]ncc45)cc3)C2)CC1 [Compound A11, (1S,3R)-3-{5-[4-(1H-indazol-4-yl)-phenyl]-imidazol-1-yl}-cyclopentanecarboxylic acid (1-methyl-cyclopropyl)-amide]	< 300	–
CC1(NC(=O)[C@H]2CC[C@@H](n3cncc3-c3ccc(-c4ccc(C#N)cc4)cc3)C2)CC1 [Compound A12, (1S,3R)-3-[5-(4′-cyano-biphenyl-4-yl)-imidazol-1-yl]-cyclopentanecarboxylic acid (1-methyl-cyclopropyl)-amide]	300 to 3000	–
CCNC(=O)[C@H]1CC[C@@H](n2nncc2-c2ccc(-c3nc4ccccc4o3)cc2)C1 [Compound A13, (1S,3R)-3-[5-(4-benzoxazol-2-yl-phenyl)-[1,2,3]triazol-1-yl]-cyclopentanecarboxylic acid ethylamide]	< 300	–
CCNC(=O)[C@H]1CC[C@@H](n2nncc2-c2ccc(-c3ccc(Cl)cc3)cc2)C1 [Compound A14, (1S,3R)-3-[5-(4′-chloro-biphenyl-4-yl)-[1,2,3]triazol-1-yl]-cyclopentanecarboxylic acid ethylamide]	< 300	–
CCNC(=O)[C@H]1CC[C@@H](n2nncc2-c2ccc(-c3ccc(C#N)cc3)cc2)C1 [Compound A15, (1S,3R)-3-[5-(4′-cyano-biphenyl-4-yl)-[1,2,3]triazol-1-yl]-cyclopentanecarboxylic acid ethylamide]	< 300	–
CCNC(=O)[C@H]1CC[C@@H](n2nncc2-c2ccc(-c3ccc4cc[nH]c4c3)cc2)C1 [Compound A16, (1S,3R)-3-{5-[4-(1H-indol-6-yl)-phenyl]-[1,2,3]triazol-1-yl}-cyclopentanecarboxylic acid ethylamide]	< 300	–
CCC(=O)N[C@H]1CC[C@@H](n2cncc2-c2ccc(-c3nc4ccccc4o3)cc2)C1 [Compound A19, N-{(1S,3R)-3-[5-(4-benzoxazol-2-yl-phenyl)-imidazol-1-yl]-cyclopentyl}-propionamide]	< 300	–
CCC(=O)N[C@H]1CC[C@@H](n2cncc2-c2ccc(-c3nc4ccccc4s3)cc2)C1 [Compound A20, N-{(1S,3R)-3-[5-(4-benzothiazol-2-yl-phenyl)-imidazol-1-yl]-cyclopentyl}-propionamide]	< 300	–
CCC(=O)N[C@H]1CC[C@@H](n2cncc2-c2ccc(-c3ccc(Cl)cc3)cc2)C1 [Compound A21, N-{(1S,3R)-3-[5-(4′-chloro-biphenyl-4-yl)-imidazol-1-yl]-cyclopentyl}-propionamide]	< 300	–
CCC(=O)N[C@H]1CC[C@@H](n2cncc2-c2ccc(-c3cccc4[nH]ncc34)cc2)C1 [Compound A22, N-((1S,3R)-3-{5-[4-(1H-indazol-4-yl)-phenyl]-imidazol-1-yl}-cyclopentyl)-propionamide]	< 300	–
CC(=O)N[C@H]1CC[C@@H](n2nncc2-c2ccc(-c3nc4ccccc4o3)cc2)C1 [Compound A24, N-{(1S,3R)-3-[5-(4-benzoxazol-2-yl-phenyl)-[1,2,3]triazol-1-yl]-cyclopentyl}-acetamide]	< 300	–
CCC(=O)N[C@H]1CC[C@@H](n2nncc2-c2ccc(-c3ccc(Cl)cc3)cc2)C1 [Compound A25, N-{(1S,3R)-3-[5-(4′-chloro-biphenyl-4-yl)-[1,2,3]triazol-1-yl]-cyclopentyl}-propionamide]	< 300	–
CCC(=O)N[C@H]1CC[C@@H](n2nncc2-c2ccc(-c3cccc4[nH]ncc34)cc2)C1 [Compound A26, N-((1S,3R)-3-{5-[4-(1H-indazol-4-yl)-phenyl]-[1,2,3]triazol-1-yl}-cyclopentyl)-propionamide]	< 300	–
CCC(=O)N[C@H]1CC[C@@H](n2nncc2-c2ccc(-c3ccc4[nH]ccc4c3)cc2)C1 [Compound A27, N-((1S,3R)-3-{5-[4-(1H-indol-5-yl)-phenyl]-[1,2,3]triazol-1-yl}-cyclopentyl)-propionamide]	< 300	–
CCC(=O)N[C@H]1CC[C@@H](n2nncc2-c2ccc(-c3nc4ccccc4s3)cc2)C1 [Compound A28, N-{(1S,3R)-3-[5-(4-benzothiazol-2-yl-phenyl)-[1,2,3]triazol-1-yl]-cyclopentyl}-propionamide]	< 300	–
